Patent US20230322724A1, “HETEROCYCLIC COMPOUNDS AS CBP/EP300 BROMODOMAIN INHIBITORS” (AURIGENE ONCOLOGY LIMITED, priority 2020, published 2023)

Target: T1, recombinant CREBBP bromodomain (Homo sapiens, UniProt Q92793)
T1 construct: recombinant CREBBP bromodomain obtained from BPS Bioscience, USA; purchased BPS Bioscience, USA
Assay: CBP TR-FRET displacement assay
Assay type: binding
Conditions: compound at 10 μM
Description: The potency of compounds to inhibit CREBBP enzyme was tested in a TR-FRET displacement assay using recombinant CREBBP bromodomain obtained from BPS Bioscience, USA. The assay buffer was 50 mM HEPES (pH 7.5), 50 mM NaCl, 0.008% Brij 35, 0.01% BSA, 1 mM TCEP. 50 nM of CREBBP & 500 nM of Biotinylated ligand was incubated at room temperature for 30 minutes, the reaction was initiated by adding pre-incubated enzyme ligand mixture to the test compounds. After 60 min incubation, the reaction was stopped by the addition of stop mix containing 1 nM of LANCE Europium-anti-6xHis antibody (Perkin Elmer, USA) and 40 nM of Sure Light Allophycocyanin-Streptavidin (Perkin Elmer, USA). Fluorescence emission of the samples at 665 and 615 nm were measured at an excitation of 340 nm and their ratio was plotted against the compound concentrations to generate dose-response curve. The percent inhibition of the test compounds is calculated using the ratio of enzyme activity controls.
elected compounds of the present invention were screened in the above-mentioned assay procedures and IC50 values were determined by fitting the dose-response data to sigmoidal curve fitting equation using Graph pad prism software V7.

T1 sequence (Q92793 1085-1192 limits assumed): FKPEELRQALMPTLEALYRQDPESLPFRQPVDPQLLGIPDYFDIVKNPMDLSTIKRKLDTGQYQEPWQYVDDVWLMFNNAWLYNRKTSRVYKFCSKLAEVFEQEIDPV

SMILES | inhibition at 10 µM [%]
Cc1cc2c(N3CCN(C4CCOCC4)c4ccccc43)cccc2n(C)c1=O [Example 78, 1,3-Dimethyl-5-(4-(tetrahydro-2H-pyran-4-yl)-3,4-dihydroquinoxalin-1(2H)-yl)quinolin-2(1H)-one] | 25
Cc1cc2c(N3CCN(C)c4cc(-c5cnn(C)c5)c(CO)cc43)cccc2[nH]c1=O [Example 58, 5-(7-(Hydroxymethyl)-4-methyl-6-(1-methyl-1H-pyrazol-4-yl)-3,4-dihydroquinoxalin-1(2H)-yl)-3-methylquinolin-2(1H)-one] | 91
CNC(=O)c1ccc(-c2cc3c(cc2C(F)F)N(c2cc(OC)cc4c2cc(C)c(=O)n4C)CCC3)cn1 [Example 192, 5-(7-(Difluoromethyl)-7′-methoxy-1′,3′-dimethyl-2′-oxo-1′,2′,3,4-tetrahydro-2H-[1,5′-biquinolin]-6-yl)-N-methylpicolinamide] | 47

Same assay, conditions: dose-response, read-out: IC50 (group A, B, C)

SMILES | IC50 [nM]
COc1cc(N2CCN(C)c3cc(N4CCC(C(=O)NCCO)CC4)c(C#N)cc32)c2cc(C)c(=O)n(C)c2c1 [Example 59, 1-(7-Cyano-1-(7-methoxy-1,3-dimethyl-2-oxo-1,2-dihydroquinolin-5-yl)-4-methyl-1,2,3,4-tetrahydroquinoxalin-6-yl)-N-(2-hydroxyethyl)piperidine-4-carboxamide] | < 50
COc1cc2c(cc1-c1cnn(C)c1)C(C)CCN2c1nc(C2CCOCC2)cc2c1cc(C)c(=O)n2C (stereo not shown) [Example 239] | 51 to 100
CNC(=O)N1CCN(c2cc3c(cc2C#N)N(c2cc(OC)cc4c2cc(C)c(=O)n4C)CCN3C)CC1 [Example 28] | < 50
Cc1cc2c(N3CCN(C)c4nc(-c5cnn(C)c5)ncc43)cc(N3CCOCC3)cc2n(C)c1=O [Example 76, 1,3-Dimethyl-5-(8-methyl-2-(1-methyl-1H-pyrazol-4-yl)-7,8-dihydropteridin-5(6H)-yl)-7-morpholinoquinolin-2(1H)-one] | < 50
COc1cc2c(cc1-c1cnn(C)c1)CCCN2c1nc(C2CCOCC2)cc2c1cc(C)c(=O)n2C [Example 238] | < 50
Cc1cc2c(N3CCN(C)c4cc(-c5cnn(C)c5)ncc43)cc(C3CCOC3)cc2n(C)c1=O (stereo not shown) [Example 142] | < 50
Cc1cc2c(N3CCCc4cc(-c5cnn(C)c5)c(C(F)F)cc43)nc(N3CC(O)C(O)C3)cc2n(C)c1=O (stereo not shown) [Example 213] | < 50
Cc1cc2c(N3CCN(C)c4cc(-c5cnn(C)c5)ncc43)cc(O)cc2n(C)c1=O [Example 145, 7-Hydroxy-1,3-dimethyl-5-(1-methyl-7-(1-methyl-1H-pyrazol-4-yl)-2,3-dihydropyrido[3,4-b]pyrazin-4(1H)-yl)quinolin-2(1H)-one] | 51 to 100
CC(=O)N1CCN(c2cc3c(cc2C(F)F)N(c2cc(N4CCOCC4)cc4c2cc(C)c(=O)n4C)CCC3)CC1 [Example 174, 6-(4-Acetylpiperazin-1-yl)-7-(difluoromethyl)-1′,3′-dimethyl-7′-morpholino-3,4-dihydro-2H-[1,5′-biquinolin]-2′(1′H)-one] | 51 to 100
CCN1CCN(c2cc(OC)cc3c2cc(C)c(=O)n3C)c2cc(C#N)c(N3CCN(C(C)=O)CC3)cc21 [Example 32] | < 50
Cc1cc2c(N3CCN(C)c4cc(-c5cnn(C)c5)ncc43)cc(C#CCO)cc2n(C)c1=O [Example 155, 7-(3-Hydroxyprop-1-yn-1-yl)-1,3-dimethyl-5-(1-methyl-7-(1-methyl-1H-pyrazol-4-yl)-2,3-dihydropyrido[3,4-b]pyrazin-4(1H)-yl)quinolin-2(1H)-one] | 51 to 100
COc1cc2c(cc1-c1cnn(C)c1)CCCN2c1nc(N2CCC(S(N)(=O)=O)C2)cc2c1cc(C)c(=O)n2C (stereo not shown) [Example 246, 1-(5-(7-Methoxy-6-(1-methyl-1H-pyrazol-4-yl)-3,4-dihydroquinolin-1(2H)-yl)-1,3-dimethyl-2-oxo-1,2-dihydro-1,6-naphthyridin-7-yl)pyrrolidine-3-sulfonamide] | 51 to 100
Cc1cc2c(N3CCN(C)c4cc(-c5cnn(C)c5)c(F)cc43)cc(N(C)C)cc2n(C)c1=O [Example 45] | < 50
Cc1cc2c(N3CCN(C)c4cc(-c5cnn(C)c5)ncc43)cc(OC3CCOCC3)cc2n(C)c1=O [Example 158] | < 50
COc1cc(N2CCCc3ccc(C#N)cc32)c2cc(C)c(=O)n(C)c2c1 [Example 184] | > 10
COc1cc(N2CCN(C)c3cc(-c4ccncc4)c(C#N)cc32)c2cc(C)c(=O)n(C)c2c1 [Example 21] | < 50
COc1cc(N2CC(=O)Nc3cc(-c4cnn(C)c4)c(F)cc32)c2cc(C)c(=O)n(C)c2c1 [Example 55] | 51 to 100
Cc1cc2c(N3CCN(C)c4cc(-c5cnn(C)c5)c(C#N)cc43)cc(N3CCOCC3)cc2n(C)c1=O [Example 47] | < 50
Cc1cc2c(N3CC(C)N(C)c4cc(-c5cnn(C)c5)ncc43)cc(N3CCOCC3)cc2n(C)c1=O (stereo not shown) [Example 144] | 51 to 100
Cc1cc2c(N3CCCc4cc(C5CCCO5)c(C(F)F)cc43)nc(N3CC[C@@H](O)C3)cc2n(C)c1=O (stereo partly shown) [Example 227] | 51 to 100
Cc1cc2c(N3CCN(C)c4cc(-c5cnn(C)c5)c(CO)cc43)cccc2[nH]c1=O [Example 58, 5-(7-(Hydroxymethyl)-4-methyl-6-(1-methyl-1H-pyrazol-4-yl)-3,4-dihydroquinoxalin-1(2H)-yl)-3-methylquinolin-2(1H)-one] | 51 to 100
COC(=O)c1cc2c(cc1-c1cnn(C)c1)N(C)CCN2c1cc(OC)cc2c1cc(C)c(=O)n2C [Example 34] | < 50
COc1cc(N2CCN(C)c3cc(C4=CCCC4)c(S(=O)(=O)NC(C)=O)cc32)c2cc(C)c(=O)n(C)c2c1 [Example 110] | < 50

SMILES | IC50 [nM]
Cc1cc2c(N3CCCc4cc(-c5cnn(C)c5)ncc43)cc(N3C[C@H]4C[C@@H]3CO4)cc2n(C)c1=O [Example 168] | < 50
COc1cc(N2CCN(C)c3cc(N4CC(C)NC(C)C4)c(C#N)cc32)c2cc(C)c(=O)n(C)c2c1 (stereo not shown) [Example 24] | > 10
Cc1cc2c(N3CCN(C)c4ccc(C#N)cc43)cccc2[nH]c1=O [Example 115, 1-Methyl-4-(3-methyl-2-oxo-1,2-dihydroquinolin-5-yl)-1,2,3,4-tetrahydroquinoxaline-6-carbonitrile] | < 50
Cc1cc2c(N3CCN(C)c4cc(-c5cnn(C)c5)c(C#N)cc43)cc(OCc3ncco3)cc2n(C)c1=O [Example 41] | < 50
COc1cc(N2CCc3c(c(-c4cnn(C)c4)nn3C)C2)c2cc(C)c(=O)n(C)c2c1 [Example 191] | > 10
COc1cc(N2CCN(C)c3cc(S(N)(=O)=O)ccc32)c2cc(C)c(=O)n(C)c2c1 [Example 114, 1-(7-Methoxy-1,3-dimethyl-2-oxo-1,2-dihydroquinolin-5-yl)-4-methyl-1,2,3,4-tetrahydroquinoxaline-6-sulfonamide] | > 10
Cc1cc2c(N3CCCc4cc(-c5cnn(C)c5)ncc43)cc(N3CCOCC3)cc2n(C)c1=O [Example 169] | < 50
CNC(=O)c1ccc2c(c1)N(c1cc(OC)cc3c1cc(C)c(=O)n3C)CCN2C [Example 81] | > 10
Cc1cc2c(N3CCN(C)c4cc(-c5cnn(C)c5)ncc43)cc(OCCN3CCOCC3)cc2n(C)c1=O [Example 128] | 51 to 100
Cc1cc2c(N3CCCc4cc(C5CCOC5)c(C(F)F)cc43)nc(N3CC[C@@H](O)C3)cc2n(C)c1=O (stereo partly shown) [Example 228] | < 50
COc1cc(N2CCN(C)c3cc(-c4cnn(C)c4)c(S(N)(=O)=O)cc32)c2cc(C)c(=O)n(C)c2c1 [Example 90] | < 50
COc1cc(N2CCN(C)c3ccc([S+](C)[O-])cc32)c2cc(C)c(=O)n(C)c2c1 (single isomer, unassigned) [Example 250] | > 10
Cc1cc2c(N3CCCc4cc(-c5cccn(C)c5=O)c(C(F)F)cc43)nc(C3CCOCC3)cc2n(C)c1=O [Example 235, 5-(7-(difluoromethyl)-6-(1-methyl-2-oxo-1,2-dihydropyridin-3-yl)-3,4-dihydroquinolin-1(2H)-yl)-1,3-dimethyl-7-(tetrahydro-2H-pyran-4-yl)-1,6-naphthyridin-2(1H)-one] | < 50
Cc1cc2c(N3CCCc4cc(-c5cnn(C)c5)c(O)cc43)nc(C3CCOCC3)cc2n(C)c1=O [Example 244, 5-(7-Hydroxy-6-(1-methyl-1H-pyrazol-4-yl)-3,4-dihydroquinolin-1(2H)-yl)-1,3-dimethyl-7-(tetrahydro-2H-pyran-4-yl)-1,6-naphthyridin-2(1H)-one] | < 50
COc1cc(N2CCc3cccc(-c4cnn(C)c4)c3C2)c2cc(C)c(=O)n(C)c2c1 [Example 189] | > 10
COc1cc(N2CCN(C)c3cc(-c4cnn(C)c4)c(F)cc32)c2cc(C)c(=O)n(C)c2c1 [Example 30] | < 50
Cc1cc2c(N3CCSc4cc(-c5cnn(C)c5)ncc43)cc(N3CCOCC3)cc2n(C)c1=O [Example 171] | < 50
COc1cc(N2CC(=O)N(C)c3ccc(S(N)(=O)=O)cc32)c2cc(C)c(=O)n(C)c2c1 [Example 89] | > 10
CNC(=O)c1ccc(-c2ccc3c(c2)CCCN3c2cc(OC)cc3c2cc(C)c(=O)n3C)cn1 [Example 186] | 51 to 100
Cc1cc2c(N3CCN(C)c4cc(S(=O)(=O)C(C)C)ncc43)cc(N3CCOCC3)cc2n(C)c1=O [Example 141] | 51 to 100
CC(=O)NC1CCN(c2cc3c(cc(C)c(=O)n3C)c(N3CCCc4cc(-c5cnn(C)c5)c(C(F)F)cc43)n2)C1 (stereo not shown) [Example 216] | < 50
Cc1cc2c(N3CCN(C)c4cc(-c5cnn(C)c5)ncc43)nc(N3C4CCC3COC4)cc2n(C)c1=O [Example 221] | > 10
COc1cc(N2CCN(C)c3cc(N4CCC(N(C)C)CC4)c(C#N)cc32)c2cc(C)c(=O)n(C)c2c1 [Example 22] | < 50
